Experimental data as given in PubChem BioAssay (NCI).
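Dose response: 5 concentrations. Exposure: 48 h. Format: 96-well plates. Endpoint: linear interpolation; highest concentration if not reached. TGI: concentration producing complete growth inhibition.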

Legend:
Assay in all cases: NCI anticancer screen, dose series, 48 h
HCT-116 colon = tested on: HCT-116 colon
T-47D breast = tested on: T-47D breast
A549 NSCLC = tested on: A549 NSCLC
SK-MEL-5 melanoma = tested on: SK-MEL-5 melanoma
M19-MEL melanoma = tested on: M19-MEL melanoma
HOP-18 NSCLC = tested on: HOP-18 NSCLC
DMS 273 small cell lung = tested on: DMS 273 small cell lung
DLD-1 colon = tested on: DLD-1 colon
KM20L2 colon = tested on: KM20L2 colon
DMS 114 small cell lung = tested on: DMS 114 small cell lung
LXFL 529 NSCLC = tested on: LXFL 529 NSCLC

| Compound | TGI (HCT-116 colon) [µM] | TGI (T-47D breast) [µM] | TGI (A549 NSCLC) [µM] | TGI (SK-MEL-5 melanoma) [µM] | TGI (M19-MEL melanoma) [µM] | TGI (HOP-18 NSCLC) [µM] | TGI (DMS 273 small cell lung) [µM] | TGI (DLD-1 colon) [µM] | TGI (KM20L2 colon) [µM] | TGI (DMS 114 small cell lung) [µM] | TGI (LXFL 529 NSCLC) [µM] |
| --- | --- | --- | --- | --- | --- | --- | --- | --- | --- | --- | --- |
| Cc1ccnc2[nH]c(-c3ccc(F)cc3)cc(=O)c12 | > 100 | > 100 | > 100 | > 100 | – | – | – | – | – | – | – |
| COc1cc2c(cc1OC)C(=O)C1(C2)[C@H](c2ccccc2)C2C(=O)c3cc(OC)c(OC)cc3C2[C@H]1c1ccccc1 (stereo partly drawn) | > 100 | > 100 | > 100 | > 100 | – | – | – | – | – | – | – |
| CSC1=NNC(SC)=NN1 | 0.303 | 0.33 | 0.406 | 0.354 | – | – | – | – | – | – | – |
| CCN(CC)c1ccc(/C=C/C(=O)c2cc(C(C)(C)C)c(O)c(C(C)(C)C)c2)cc1 | > 39.1 | – | > 100 | 70.9 | – | – | – | – | – | – | – |
| CC(=O)OCC1OC(O[C@@H]2C[C@H]3C(C)(C)[C@@H](OC(C)=O)CC[C@]3(C)[C@H]3CC[C@]45C[C@]4(CC[C@H]5[C@@H](C)C[C@@H](O)[C@H](O)C(C)(C)F)[C@@]32C)C(O)C(O)C1O (stereo partly drawn) | 2.95 | > 100 | 3.12 | 3.2 | – | – | – | – | – | – | – |
| CC1(c2ccc(Cl)s2)CC(c2ccc(Cl)s2)=C(C#N)C(=C(C#N)C#N)N1 (stereo not drawn) | 34.2 | 46.7 | 48.8 | 29.5 | – | – | – | – | – | – | – |
| CC(C)Oc1cccc(N2C(=NCCc3c[nH]c4ccccc34)Nc3ccncc3S2(=O)=O)c1 | > 100 | > 100 | > 100 | > 100 | – | – | – | – | – | – | – |
| CC1CN(c2cc3c(cc2F)c(=O)c(C(=O)O)cn3-c2ccc(F)cn2)CC(C)N1 (stereo not drawn) | > 100 | > 100 | > 100 | – | – | – | – | – | – | – | – |
| ONC1=Nc2ccccc2C(=S)N2CSCC12 (stereo not drawn) | > 100 | > 100 | > 100 | 99.2 | – | – | – | – | – | – | – |
| CCCCCCCCCCCCCCCCCCNc1nc(=O)n(C2CC(O)C(COP(=O)(O)OCC3OC(n4ccc(N)nc4=O)C(O)C3O)O2)cc1F (stereo not drawn) | > 100 | > 100 | > 100 | > 100 | – | – | – | – | – | – | – |
| COc1ccc(/C(=C/n2ccnc2)C(O)c2ccc(OC)c(OC)c2)cc1OC (stereo not drawn) | – | – | – | – | > 100 | > 100 | > 100 | > 100 | > 100 | – | – |
| COC(=O)[C@H]1COC(=O)N1 | > 100 | > 100 | > 100 | > 100 | – | – | – | – | – | – | – |
| O=C1c2ccccc2C2C1C(c1ccccc1)C1(Cc3ccccc3C1=O)C2c1ccccc1 (stereo not drawn) | > 100 | > 100 | > 100 | > 100 | – | – | – | – | – | – | – |
| O=c1[nH]c(=O)n(C2CC(O)C(CO)O2)c2nc3ccc4cc5ccccc5cc4c3nc12 (stereo not drawn) | > 100 | > 100 | > 100 | > 100 | – | – | – | – | – | – | – |
| O=C(O)[C@H](Cc1ccccc1)NCCN1CCC[C@H]1C(=O)O | > 100 | > 100 | > 100 | > 100 | – | – | – | – | – | – | – |
| COc1cc2c(cc1OC)CC1c3cc(OC)c(OC)cc3CCN1CC2 (stereo not drawn) | > 100 | > 100 | > 100 | > 100 | – | – | – | – | – | – | – |
| CSc1nc2c(c(N3CCOCC3)n1)C(O)n1c(nc3ccccc31)S2 (stereo not drawn) | > 100 | > 100 | > 100 | 8.41 | – | – | – | – | – | – | – |

| Compound | TGI (HCT-116 colon) [µM] | TGI (T-47D breast) [µM] | TGI (A549 NSCLC) [µM] | TGI (SK-MEL-5 melanoma) [µM] | TGI (M19-MEL melanoma) [µM] | TGI (HOP-18 NSCLC) [µM] | TGI (DMS 273 small cell lung) [µM] | TGI (DLD-1 colon) [µM] | TGI (KM20L2 colon) [µM] | TGI (DMS 114 small cell lung) [µM] | TGI (LXFL 529 NSCLC) [µM] |
| --- | --- | --- | --- | --- | --- | --- | --- | --- | --- | --- | --- |
| CCOC(OCC)N1C(=O)C2(C(OCC)OCC)CC3C(OC(=O)N3N)c3cccc1c32 (stereo not drawn) | > 100 | > 100 | > 100 | > 100 | – | – | – | – | – | – | – |
| O=c1[nH]nc(-c2ccccc2)n1/N=C/c1ccccc1Cl | > 100 | > 100 | > 100 | 36.1 | – | – | – | – | – | – | – |
| COC(=O)C1=C(C)NC(C)=C(C(=O)OC)C1c1ccc(N=O)cc1 | 36.8 | 44.7 | > 60.3 | 30.9 | – | – | – | – | – | – | – |
| CC(C)(C)OC(=O)NCCCC(=O)NC1(c2cc3ccccc3s2)CCCCC1 | 30.1 | > 100 | > 100 | 19.9 | – | – | – | – | – | – | – |
| CCN(CC)C1C(=O)NC1C#Cc1ccccc1 (stereo not drawn) | > 100 | > 100 | – | > 100 | – | – | – | – | – | – | – |
| CC(C)(C)OC(=O)NCCNCCNc1ccccc1 | > 100 | > 100 | > 100 | > 100 | – | – | – | – | – | – | – |
| CSc1nc(C)c(CCOC(C)=O)c(Cl)n1 | > 100 | > 100 | > 100 | > 100 | – | – | – | – | – | – | – |
| COC(=O)C1Cc2ccc3c(c2C1=O)CCCC3 (stereo not drawn) | > 100 | > 100 | > 100 | > 100 | – | – | – | – | – | – | – |
| CN(C)c1nncc2n[nH]nc12 | > 100 | > 100 | > 100 | > 100 | – | – | – | – | – | – | – |
| Cc1[nH]c(=O)[nH]c1C(=O)c1ccc(-n2ccnc2)cc1 | > 100 | – | > 100 | > 100 | > 100 | – | > 100 | > 100 | > 100 | > 100 | > 100 |
| COc1ccc(NC(C)=O)c(C(O)CCNC(C)=O)c1 (stereo not drawn) | > 100 | > 100 | > 100 | > 100 | – | – | – | – | – | – | – |
| CC(=O)O[C@@]12CO[C@@H]1C[C@@H](O)[C@@]1(C)C(=O)[C@H](O)C3=C(C)[C@@H](OC(=O)[C@H](O)[C@@H](NC(=O)c4ccccc4)c4ccccc4)C[C@@](O)([C@@H](OC(=O)c4ccccc4)C12)C3(C)C (stereo partly drawn) | 0.152 | > 100 | > 100 | – | 70.9 | – | 13.5 | – | 0.0985 | 22.8 | – |
| CCNC12CCC(C1)C(C)(C)C2=O (stereo not drawn) | > 100 | > 100 | > 100 | > 100 | – | – | – | – | – | – | – |
| COc1ccc(N=NC(=Nc2ccc(Cl)cc2)c2ccc(N(CCC#N)CCC#N)cc2)cc1 | > 100 | 78 | > 100 | > 100 | – | – | – | – | – | – | – |
| O=C1NC(N2CCCCC2)=N/C1=C\c1ccc(Cl)cc1 | 92.7 | > 100 | > 100 | > 100 | – | – | – | – | – | – | – |
| O=C(CCc1ccccc1)n1cccc1CO | > 100 | > 100 | > 100 | > 100 | – | – | – | – | – | – | – |
